Test results as given in patent publication US20100256230A1, “1-BUTANE ACID DERIVATIVES, PHARMACEUTICAL COMPOSITIONS CONTAINING SAID DERIVATIVES AND THE USE THEREOF” (SCHEBO BIOTECH AG, priority 2001, published 2010).

Experiments:
Novikoff hepatoma cells = assay: Proliferation inhibition of Novikoff hepatoma cells (cell count after four days of cultivation); assay type: cell-based; settings: Novikoff hepatoma cells, 100,000 cells seeded per 25 cm2 bottle, counted after four days of cultivation, compared to control without compound; FIGS. 1 and 2
Protocol: The cell density was measured after four days of cultivation.
The cell density was measured after 4 days of cultivation.
The Novikoff hepatoma cells utilized in this example were obtained from the tumor bank of the Deutsches Krebsforschungszentrum, Heidelberg (Cancer Research 1951, 17, 1010). 100,000 cells each are seeded per 25 cm^2 cultivation bottle. The substance according to Example 1 of the invention, dissolved in a solvent suitable for use in cell cultures, for instance water, diluted ethanol, dimethylsulfoxide or the like, was added in an increasing concentration to the culture medium, e.g. L-cycloserine (compound 16) or dehydrothreonine (compound 2) in a concentration range of 80 μM-5,000 μM; carbomethoxypropionyl cyanide (compound 13) in a range of 100 μM-300 μM. After four days of cultivation, the number of cells per bottle was counted. The results are shown in FIGS. 1 and 2, and a dose dependence of the proliferation inhibition compared to the control sample without addition of a compound according to the invention can be seen.

[1] = test system: glycolysis of Novikoff-Zellen hepatoma cells; assay: Inhibition of glycolysis of Novikoff cells (lactate produced for glucose consumed); assay type: cell-based

Structure (SMILES) | inhibition of tumor cell growth (proliferation inhibition, cell density) (Novikoff hepatoma cells) | inhibition of glycolysis flow, lactate produced for glucose consumed ([1]; FIG. 3) | inhibition of glycolysis flow, lactate produced for glucose consumed ([1]; FIG. 3, listed as CMPC)
COC(=O)CCC(=O)C#N [carbomethoxypropionyl cyanide] | dose-dependent inhibition of tumor cell growth | massively inhibits the glycolysis flow | inhibition of glycolysis
N[C@H]1CONC1=O [L-glycoserine, L-cycloserine] | dose-dependent inhibition of tumor cell growth | – | –
